From patent US20240239801A1, “PYRIMIDO[5,4,D]PYRIMIDINE COMPOUNDS, COMPOSITIONS COMPRISING THEM AND USES THEREOF” (Université de Montréal, priority 2021, published 2024)
Where two headings read alike, the source gives them in different places.

Assays:
Assay in all cases: Proliferation inhibition, CellTiter-Glo
Format in all cases: cell-based, human
[1] = test system: RKO; details: Table D-1, 3 days, read-out: RKO Prolif. EC50
Procedure: (§1) All cancer cell lines (A375, A101D, A2058, RKO, HT29 SK-MEL 30, IPC298, HepG2, HCT-116, Lovo, SW620, SW480, NCI-H358, NCI-H2122, Calu-6, NCIH2087, NCIH1755, NCIH1666 and Mewo) were obtained from ATCC and cultured in RPMI-1640 medium (Gibco) supplemented with 5% heat inactivated fetal bovine serum (FBS, Wisent) at 37° C. under 5% CO2. Cells were maintained in T175 flasks (Greiner). They were passaged by removing the culture medium, washing once in 10 mL of room temperature Phosphate Buffered Saline (PBS; Wisent) and incubating at 37° C. with 2 mL of 0.05% Trypsin (Thermo-Fisher). Trypsin was then inactivated by adding complete growth medium and the cells were then replated in a T175 culture dish at the appropriate dilution. All cell lines were routinely tested for mycoplasma contamination. Tissue type and mutational status of each cell line can be found in Table B.
(§2) CellTiter-Glo® viability analysis was conducted on cells plated in […] of complete RPMI-1640 growth medium in 96-well flat-bottomed white opaque plates (Greiner or Corning) at a density indicated in Table E (for each CCL, number of cells plated per well of a 96-well plate to perform the CellTiter-Glo® cell viability assay). The cell density in cells/cm^2 would correspond to cell number divided by the area of one well of a 96-well plate (0.32 cm^2). Cells were maintained overnight at 37° C. under 5% CO2 before treatment with compounds' dilution series for 3 days.
(§3) In a dilution series 100 μL/well of test substance dilution prepared in complete RPMI-1640 growth media was added to the cells plated initially in 100 μL of growth media. The dilution series is selected so that ten concentrations cover a range from 30 μM or 10 μM to […]. If necessary (as in the case of A375 cells, which were more sensitive to the compounds) the initial concentration of 10 μM is lowered to 1 μM and further dilution is carried out accordingly. The final concentration of DMSO in the assay is set to 0.5%.
(§4) After 3 days of incubation, the growth media were removed by aspiration and 60 μL of diluted CellTiter-Glo® reagent (10 μL CellTiter-Glo® reagent+50 μL of PBS) was added to each well. Cells were allowed to lyse and to equilibrate in CellTiter-Glo® reagent by 5 min incubation on a plate shaker followed by 10 min incubation at room temperature. Luminescence signals were then acquired on a Synergy Neo2 plate reader (Biotek).
(§5) The effect of each compound dilution on the proliferation of cancer cell lines was expressed in % inhibition and calculated as follows. An internal 100% inhibition control (1 μM of trametinib; cat. No. HY-10999; MedChem Express; CAS No. 871700-17-3) was included in each plate and used as a measure of CellTiter-Glo® signal background. The value obtained for trametinib was subtracted from each data point. The average of DMSO (vehicle) controls (set as 0% inhibition) was established and used to calculate % inhibition:
(§6) The ability of each compound to inhibit proliferation was expressed as a EC50 value obtained by plotting the effect values for each data point of a dilution series and fitting the obtained curves using a log(agonist) versus response−variable slope (four parameters) function using GraphPadPrism (V7.0) or Dotmatics Screening Ultra platform.

[2] = test system: Calu6; details: Table D-2, 3 days, read-out: Calu6 Prolif. EC50
Procedure: as §1, §2, §3, §4, §5, §6

[3] = test system: Lovo; details: Table D-2, 3 days, read-out: Lovo Prolif. EC50
Procedure: as §1, §2, §3, §4, §5, §6

[4] = test system: HT-29; details: Table D-1, 3 days, read-out: HT-29 Prolif. EC50
Procedure: as §1, §2, §3, §4, §5, §6

[5] = test system: HepG2; details: Table D-1, 3 days, read-out: HepG2 Prolif. EC50
Procedure: as §1, §2, §3, §4, §5, §6

[6] = test system: HCT116; details: Table D-1, 3 days, read-out: HCT116 Prolif. EC50
Procedure: as §1, §2, §3, §4, §5, §6

[7] = test system: NCIH2087; details: Table D-2, 3 days, read-out: NCIH2087 Prolif. EC50
Procedure: as §1, §2, §3, §4, §5, §6

[8] = test system: SW620; details: Table D-2, 3 days, read-out: SW620 Prolif. EC50
Procedure: as §1, §2, §3, §4, §5, §6

[9] = test system: SK-MEL30; details: Table D-1, 3 days, read-out: SK-MEL30 Prolif. EC50
Procedure: as §1, §2, §3, §4, §5, §6

[10] = test system: NCI-H358; details: Table D-2, 3 days, read-out: NCI-H358 Prolif. EC50
Procedure: as §1, §2, §3, §4, §5, §6

[11] = test system: A2058; details: Table D-1, 3 days, read-out: A2058 Prolif. EC50
Procedure: as §1, §2, §3, §4, §5, §6

[12] = test system: NCI-H2122; details: Table D-2, 3 days, read-out: NCI-H2122 Prolif. EC50
Procedure: as §1, §2, §3, §4, §5, §6

[13] = test system: NCIH1755; details: Table D-2, 3 days, read-out: NCIH1755 Prolif. EC50
Procedure: as §1, §2, §3, §4, §5, §6

| EC50 [2] [nM] | EC50 [3] [nM] | EC50 [4] [nM] | EC50 [5] [nM] | EC50 [6] [nM] | EC50 [8] [nM] | EC50 [9] [nM] | EC50 [10] [nM] | EC50 [12] [nM] | EC50 ([2]; Homo sapiens, Calu-6, 72 h) [nM] | EC50 ([3]; Homo sapiens, LoVo, 72 h) [nM] | EC50 ([4]; Homo sapiens, HT-29, 72 h) [nM] | EC50 ([5]; Homo sapiens, HepG2, 72 h) [nM] | EC50 ([6]; Homo sapiens, HCT-116, 72 h) [nM] | SMILES | EC50 [1] [nM] | EC50 [7] [nM] | EC50 [11] [nM] | EC50 ([1]; Homo sapiens, RKO, 72 h) [nM] | EC50 ([13]; Homo sapiens, NCI-H1755, 72 h) [nM] | EC50 ([7]; Homo sapiens, NCI-H2087, 72 h) [nM] | further results |
| --- | --- | --- | --- | --- | --- | --- | --- | --- | --- | --- | --- | --- | --- | --- | --- | --- | --- | --- | --- | --- | --- |
| – | – | – | – | – | – | – | – | – | < 300 | < 300 | < 300 | < 300 | 300 to 3000 | Cc1ccc2c(Nc3cccc(Cl)c3F)nccc2c1NC(=O)c1csc2c(N)ncnc12 [Belvarafenib, reference compound] | – | – | – | < 300 | > 3000 | < 300 | EC50 ([8]; Homo sapiens, SW-620, 72 h): 300 to 3000 nM; EC50 ([9]; Homo sapiens, SK-MEL-30, 72 h): < 300 nM; EC50 ([10]; Homo sapiens, NCI-H358, 72 h): 300 to 3000 nM; EC50 ([12]; Homo sapiens, NCI-H2122, 72 h): 300 to 3000 nM |
| < 300 | < 300 | < 300 | < 300 | < 300 | 300 to 3000 | < 300 | < 300 | 300 to 3000 | – | – | – | – | – | Cc1c(F)cccc1S(=O)(=O)Nc1ccc(F)c(Nc2ncnc3cnc(-n4cc(C(=O)N(C)Cc5ccncc5)c5ccccc54)nc23)c1F [Example 98] | < 300 | < 300 | < 300 | – | – | – | EC50 [13]: < 300 nM |
| 300 to 3000 | < 300 | < 300 | < 300 | 300 to 3000 | 300 to 3000 | < 300 | < 300 | 300 to 3000 | – | – | – | – | – | O=S(=O)(Nc1ccc(F)c(Nc2ncnc3cnc(-n4cnc5c(N6CCC7(CCCO7)CC6)cccc54)nc23)c1F)c1cccc(Cl)c1Cl [Example 129] | < 300 | 300 to 3000 | < 300 | – | – | – | EC50 [13]: 300 to 3000 nM |

Continued, compound first:

| SMILES | EC50 [2] [nM] | EC50 [3] [nM] | EC50 [4] [nM] | EC50 [5] [nM] | EC50 [6] [nM] | EC50 [8] [nM] | EC50 [9] [nM] | EC50 [10] [nM] | EC50 [12] [nM] | EC50 ([2]; Homo sapiens, Calu-6, 72 h) [nM] | EC50 ([3]; Homo sapiens, LoVo, 72 h) [nM] | EC50 ([4]; Homo sapiens, HT-29, 72 h) [nM] | EC50 ([5]; Homo sapiens, HepG2, 72 h) [nM] | EC50 ([6]; Homo sapiens, HCT-116, 72 h) [nM] | EC50 [1] [nM] | EC50 [7] [nM] | EC50 [11] [nM] | EC50 ([1]; Homo sapiens, RKO, 72 h) [nM] | EC50 ([13]; Homo sapiens, NCI-H1755, 72 h) [nM] | EC50 ([7]; Homo sapiens, NCI-H2087, 72 h) [nM] | further results |
| --- | --- | --- | --- | --- | --- | --- | --- | --- | --- | --- | --- | --- | --- | --- | --- | --- | --- | --- | --- | --- | --- |
| COc1ccc(S(=O)(=O)Nc2ccc(F)c(Nc3ncnc4cnc(-n5cnc6c(N)cccc65)nc34)c2F)c(C)c1Cl [Example 112] | 300 to 3000 | < 300 | < 300 | < 300 | 300 to 3000 | 300 to 3000 | < 300 | < 300 | 300 to 3000 | – | – | – | – | – | < 300 | 300 to 3000 | < 300 | – | – | – | – |
| Cc1c(F)cccc1S(=O)(=O)Nc1ccc(F)c(Nc2ncnc3cnc(-n4cnc5c(-c6cccnc6)cccc54)nc23)c1F [Example 114] | – | – | – | – | – | – | – | – | – | > 3000 | < 300 | < 300 | < 300 | 300 to 3000 | – | – | – | < 300 | > 3000 | 300 to 3000 | EC50 ([8]; Homo sapiens, SW-620, 72 h): > 3000 nM; EC50 ([9]; Homo sapiens, SK-MEL-30, 72 h): 300 to 3000 nM; EC50 ([10]; Homo sapiens, NCI-H358, 72 h): < 300 nM; EC50 ([11]; Homo sapiens, A2058, 72 h): < 300 nM; EC50 ([12]; Homo sapiens, NCI-H2122, 72 h): > 3000 nM |
